Columns and labels:
Format in all cases: biochemical
BMX = molecular target: T1, BMX (Homo sapiens, UniProt P51813); experiment: BMX kinase inhibition
T1 sequence (P51813 1-675): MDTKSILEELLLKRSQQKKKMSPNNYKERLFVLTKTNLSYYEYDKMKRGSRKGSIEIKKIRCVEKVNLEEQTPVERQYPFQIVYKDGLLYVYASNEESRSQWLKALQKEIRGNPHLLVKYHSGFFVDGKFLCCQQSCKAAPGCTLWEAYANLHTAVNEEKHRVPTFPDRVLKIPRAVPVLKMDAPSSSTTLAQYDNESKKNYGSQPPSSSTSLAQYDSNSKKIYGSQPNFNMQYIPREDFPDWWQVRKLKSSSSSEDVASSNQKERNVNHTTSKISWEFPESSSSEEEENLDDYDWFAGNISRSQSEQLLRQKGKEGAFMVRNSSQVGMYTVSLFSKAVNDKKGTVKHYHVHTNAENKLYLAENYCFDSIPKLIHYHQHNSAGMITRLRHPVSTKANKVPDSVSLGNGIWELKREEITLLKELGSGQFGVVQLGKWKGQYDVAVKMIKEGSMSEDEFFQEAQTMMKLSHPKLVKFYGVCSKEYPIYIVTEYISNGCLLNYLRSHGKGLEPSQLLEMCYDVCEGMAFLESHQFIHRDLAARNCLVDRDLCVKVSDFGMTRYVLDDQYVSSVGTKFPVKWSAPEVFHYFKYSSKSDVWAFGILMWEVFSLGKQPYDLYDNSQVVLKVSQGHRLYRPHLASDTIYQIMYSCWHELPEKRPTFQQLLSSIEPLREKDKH

C-src = C-src (Homo sapiens, UniProt P12931); experiment: C-src kinase inhibition
CSK = CSK (Homo sapiens, UniProt P41240); experiment: CSK kinase inhibition
BLK = BLK (Homo sapiens, UniProt P51451); experiment: BLK kinase inhibition
Method: (§1) Btk kinase activity was determined using a time-resolved fluorescence resonance energy transfer (TR-FRET) methodology. Measurements were performed in a reaction volume of 50 μL using 96-well assay plates. […] The reaction was quenched by the addition of 1.2 equivalents of EDTA (relative to divalent cation) in 25 μL of 1× Lance buffer (Perkin-Elmer). Streptavidin-APC (Perkin-Elmer) and Eu-labeled p-Tyr100 antibody (Perkin-Elmer) in 1× Lance buffer were added in a 25 μL volume to give final concentrations of 100 nM and 2.5 nM, respectively, and the mixture was allowed to incubate for one hour. The TR-FRET signal was measured on a multimode plate reader with an excitation wavelength (λEx) of 330 nm and detection wavelengths (λEm) of 615 and 665 nm. Activity was determined by the ratio of the fluorescence at 665 nm to that at 615 nm. For each compound, enzyme activity was measured at various concentrations of compound. Negative control reactions were performed in the absence of inhibitor in replicates of six, and two no-enzyme controls were used to determine baseline fluorescence levels Inhibition constants, Ki(app), were obtained using the program BatchKi (Kuzmic et al. (2000), Anal. Biochem. 286:45-50). IC50s were obtained according to the equation: IC50={Ki(app)/(1+[ATP]/Km^ATP)}+[E]total/2; For all kinases, [ATP]=Km^ATP, [Btk]total=0.5 nM and [Lck]total=6 nM.

Lyn = Lyn (Homo sapiens, UniProt P07948); experiment: Lyn kinase inhibition
Btk = molecular target: T2, Btk (Homo sapiens, UniProt Q06187); experiment: Btk in vitro inhibitory activity (one of Methods A, B, C); conditions: determined in one of three in vitro assays (Examples 125-127)
T2 construct: purified from insect cells as a full-length construct containing a N-terminal 6×-His tag; 6xHis (N); host or cells: insect cells (baculovirus Sf21 in Method B)
Procedure, shortened: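 Values come from one of three formats: TR-FRET (665/615 nm ratio; Ki(app) converted to IC50 with [ATP]=Km, 0.5 nM Btk), mobility-shift product/sum ratio over 12 concentrations with 4-parameter fit, or radiometric filter binding using His-tagged full-length human Btk (8 nM), 0.2 mg/mL poly-Glu-Tyr, 1 μM ATP, 120 min RT.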

Tec = molecular target: T3, Tec (Homo sapiens, UniProt P42680); experiment: Tec kinase inhibition
T3 sequence (P42680 1-631): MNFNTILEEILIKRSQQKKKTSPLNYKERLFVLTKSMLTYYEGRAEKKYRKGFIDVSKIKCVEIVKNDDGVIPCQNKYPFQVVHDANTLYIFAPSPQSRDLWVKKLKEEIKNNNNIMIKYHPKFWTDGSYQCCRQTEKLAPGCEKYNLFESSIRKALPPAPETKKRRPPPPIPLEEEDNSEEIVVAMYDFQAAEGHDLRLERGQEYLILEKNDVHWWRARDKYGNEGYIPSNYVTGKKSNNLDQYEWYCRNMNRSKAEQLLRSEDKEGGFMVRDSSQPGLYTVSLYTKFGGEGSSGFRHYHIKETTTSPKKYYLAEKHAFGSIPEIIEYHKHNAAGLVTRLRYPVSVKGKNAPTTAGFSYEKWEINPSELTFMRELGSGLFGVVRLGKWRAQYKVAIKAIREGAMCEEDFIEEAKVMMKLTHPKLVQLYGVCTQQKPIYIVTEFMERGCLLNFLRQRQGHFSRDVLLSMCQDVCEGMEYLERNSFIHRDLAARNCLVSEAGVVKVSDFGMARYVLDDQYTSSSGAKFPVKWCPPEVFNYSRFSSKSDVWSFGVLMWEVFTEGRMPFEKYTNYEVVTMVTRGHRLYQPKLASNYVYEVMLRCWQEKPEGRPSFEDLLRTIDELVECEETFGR
Method: as §1

RET = RET (Homo sapiens, UniProt P07949); experiment: RET kinase inhibition
Lck = Lck (Homo sapiens, UniProt P06239); experiment: Lck kinase inhibition
Procedure, shortened: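 Signal is the ratio of fluorescence at 665 versus 615 nm (excitation 330 nm), read after stopping kinase reactions with EDTA and a one-hour incubation with detection reagents, Eu anti-p-Tyr100 at 2.5 nM and streptavidin-APC at 100 nM. Inhibition reported as IC50 computed from fitted Ki(app), [ATP]=Km.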

EGFR = EGFR (Homo sapiens, UniProt P00533); experiment: EGFR kinase inhibition
Chain of EGFR (P00533 25-1210): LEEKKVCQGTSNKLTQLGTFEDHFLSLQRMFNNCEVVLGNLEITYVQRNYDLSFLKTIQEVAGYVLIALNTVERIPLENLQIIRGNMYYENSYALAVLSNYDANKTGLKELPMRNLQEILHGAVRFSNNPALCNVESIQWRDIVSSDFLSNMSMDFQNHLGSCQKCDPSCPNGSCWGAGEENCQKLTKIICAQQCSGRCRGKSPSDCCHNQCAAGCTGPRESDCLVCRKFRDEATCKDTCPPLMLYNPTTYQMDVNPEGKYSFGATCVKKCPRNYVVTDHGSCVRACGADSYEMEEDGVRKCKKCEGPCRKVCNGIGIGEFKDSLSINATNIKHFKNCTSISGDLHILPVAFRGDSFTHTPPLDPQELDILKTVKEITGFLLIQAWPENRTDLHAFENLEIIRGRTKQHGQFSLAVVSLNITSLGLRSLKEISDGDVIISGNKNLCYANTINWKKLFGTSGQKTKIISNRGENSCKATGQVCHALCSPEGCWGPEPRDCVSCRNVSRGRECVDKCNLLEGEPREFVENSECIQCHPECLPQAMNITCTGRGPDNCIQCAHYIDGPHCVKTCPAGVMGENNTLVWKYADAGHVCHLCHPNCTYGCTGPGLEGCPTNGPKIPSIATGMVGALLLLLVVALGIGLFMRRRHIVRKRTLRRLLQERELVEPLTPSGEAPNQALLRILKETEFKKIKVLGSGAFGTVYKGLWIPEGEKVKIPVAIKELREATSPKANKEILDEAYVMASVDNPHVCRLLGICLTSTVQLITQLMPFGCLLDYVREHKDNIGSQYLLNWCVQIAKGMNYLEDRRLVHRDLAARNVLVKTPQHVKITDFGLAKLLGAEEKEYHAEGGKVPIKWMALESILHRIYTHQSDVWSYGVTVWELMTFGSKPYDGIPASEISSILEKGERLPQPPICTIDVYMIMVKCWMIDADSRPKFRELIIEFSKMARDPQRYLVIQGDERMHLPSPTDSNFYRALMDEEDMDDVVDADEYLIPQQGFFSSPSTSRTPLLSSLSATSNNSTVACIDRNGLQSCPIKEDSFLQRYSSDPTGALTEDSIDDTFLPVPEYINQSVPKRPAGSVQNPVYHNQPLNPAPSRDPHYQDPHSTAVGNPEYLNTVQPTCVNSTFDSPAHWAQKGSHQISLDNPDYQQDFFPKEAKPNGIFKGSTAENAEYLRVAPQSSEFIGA

Chain of C-src (P12931 whole entry): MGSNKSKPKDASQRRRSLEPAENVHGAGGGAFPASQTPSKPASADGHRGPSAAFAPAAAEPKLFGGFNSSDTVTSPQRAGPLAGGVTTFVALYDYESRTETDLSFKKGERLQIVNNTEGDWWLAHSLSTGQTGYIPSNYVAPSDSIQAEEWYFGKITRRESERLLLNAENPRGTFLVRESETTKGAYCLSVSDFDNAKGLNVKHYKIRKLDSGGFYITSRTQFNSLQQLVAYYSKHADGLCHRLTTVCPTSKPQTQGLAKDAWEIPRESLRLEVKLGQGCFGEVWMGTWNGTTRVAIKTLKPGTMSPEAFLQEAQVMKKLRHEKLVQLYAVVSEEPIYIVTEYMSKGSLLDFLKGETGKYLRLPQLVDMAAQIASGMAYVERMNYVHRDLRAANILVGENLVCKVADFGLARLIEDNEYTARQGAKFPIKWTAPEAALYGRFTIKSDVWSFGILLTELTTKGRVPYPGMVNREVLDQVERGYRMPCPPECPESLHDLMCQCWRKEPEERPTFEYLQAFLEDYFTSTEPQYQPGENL
T2 sequence (Q06187 whole entry): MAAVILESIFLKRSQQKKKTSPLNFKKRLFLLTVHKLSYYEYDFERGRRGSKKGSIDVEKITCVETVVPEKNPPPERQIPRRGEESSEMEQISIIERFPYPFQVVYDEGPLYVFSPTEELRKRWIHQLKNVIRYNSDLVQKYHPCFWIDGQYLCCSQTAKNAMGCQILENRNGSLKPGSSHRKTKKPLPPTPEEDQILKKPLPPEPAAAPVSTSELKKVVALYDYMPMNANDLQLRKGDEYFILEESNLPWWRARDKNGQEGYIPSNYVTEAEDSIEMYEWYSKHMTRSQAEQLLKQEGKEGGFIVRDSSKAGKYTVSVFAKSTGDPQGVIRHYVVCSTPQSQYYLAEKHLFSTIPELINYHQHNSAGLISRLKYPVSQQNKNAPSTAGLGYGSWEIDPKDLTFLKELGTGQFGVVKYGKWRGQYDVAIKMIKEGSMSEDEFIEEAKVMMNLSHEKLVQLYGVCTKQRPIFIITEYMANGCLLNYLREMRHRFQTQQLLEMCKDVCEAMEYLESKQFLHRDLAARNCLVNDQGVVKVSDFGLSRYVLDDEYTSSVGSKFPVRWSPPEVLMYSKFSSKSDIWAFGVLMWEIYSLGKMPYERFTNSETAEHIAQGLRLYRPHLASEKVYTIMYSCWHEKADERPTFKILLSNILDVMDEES
Chain of BLK (P51451 whole entry): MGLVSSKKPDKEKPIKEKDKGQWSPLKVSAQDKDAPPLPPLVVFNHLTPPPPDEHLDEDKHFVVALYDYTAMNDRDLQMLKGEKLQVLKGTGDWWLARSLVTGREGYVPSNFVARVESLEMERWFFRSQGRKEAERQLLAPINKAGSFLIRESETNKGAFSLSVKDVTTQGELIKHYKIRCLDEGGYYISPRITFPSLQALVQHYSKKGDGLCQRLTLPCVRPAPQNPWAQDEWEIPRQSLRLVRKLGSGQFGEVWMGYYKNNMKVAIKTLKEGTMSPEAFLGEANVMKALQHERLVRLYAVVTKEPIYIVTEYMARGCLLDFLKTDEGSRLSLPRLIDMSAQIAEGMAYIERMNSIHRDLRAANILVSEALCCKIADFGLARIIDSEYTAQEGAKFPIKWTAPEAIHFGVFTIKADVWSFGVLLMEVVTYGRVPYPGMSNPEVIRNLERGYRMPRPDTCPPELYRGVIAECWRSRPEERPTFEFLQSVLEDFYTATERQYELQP
Chain of RET (P07949 29-1114): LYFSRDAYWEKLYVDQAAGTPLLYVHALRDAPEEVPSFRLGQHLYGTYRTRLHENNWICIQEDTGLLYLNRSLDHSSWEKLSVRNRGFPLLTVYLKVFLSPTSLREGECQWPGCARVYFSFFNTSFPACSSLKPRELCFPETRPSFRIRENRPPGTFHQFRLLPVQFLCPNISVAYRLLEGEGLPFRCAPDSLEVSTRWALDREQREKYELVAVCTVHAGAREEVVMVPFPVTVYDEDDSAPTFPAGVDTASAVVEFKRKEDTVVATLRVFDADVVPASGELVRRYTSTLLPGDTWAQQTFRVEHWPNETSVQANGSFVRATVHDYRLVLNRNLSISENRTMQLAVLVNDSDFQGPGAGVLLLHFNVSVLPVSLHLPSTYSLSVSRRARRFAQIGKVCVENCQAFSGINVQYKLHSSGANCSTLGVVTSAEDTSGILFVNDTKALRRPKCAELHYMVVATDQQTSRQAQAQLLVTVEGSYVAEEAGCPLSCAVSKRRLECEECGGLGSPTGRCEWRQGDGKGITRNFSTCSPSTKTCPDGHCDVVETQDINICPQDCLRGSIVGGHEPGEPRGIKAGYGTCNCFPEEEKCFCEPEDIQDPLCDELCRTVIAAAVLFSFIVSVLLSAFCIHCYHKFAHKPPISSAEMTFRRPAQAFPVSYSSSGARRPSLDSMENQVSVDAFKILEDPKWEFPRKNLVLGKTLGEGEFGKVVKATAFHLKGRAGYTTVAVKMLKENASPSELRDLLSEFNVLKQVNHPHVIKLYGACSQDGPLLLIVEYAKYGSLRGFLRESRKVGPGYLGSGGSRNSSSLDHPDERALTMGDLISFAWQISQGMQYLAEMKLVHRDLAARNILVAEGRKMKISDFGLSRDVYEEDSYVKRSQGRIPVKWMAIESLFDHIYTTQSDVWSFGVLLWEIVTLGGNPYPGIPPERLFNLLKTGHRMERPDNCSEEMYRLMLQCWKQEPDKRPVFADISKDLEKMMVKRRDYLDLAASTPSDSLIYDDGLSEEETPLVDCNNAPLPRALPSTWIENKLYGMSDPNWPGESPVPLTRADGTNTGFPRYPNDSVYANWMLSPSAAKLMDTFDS
Chain of Lck (P06239 whole entry): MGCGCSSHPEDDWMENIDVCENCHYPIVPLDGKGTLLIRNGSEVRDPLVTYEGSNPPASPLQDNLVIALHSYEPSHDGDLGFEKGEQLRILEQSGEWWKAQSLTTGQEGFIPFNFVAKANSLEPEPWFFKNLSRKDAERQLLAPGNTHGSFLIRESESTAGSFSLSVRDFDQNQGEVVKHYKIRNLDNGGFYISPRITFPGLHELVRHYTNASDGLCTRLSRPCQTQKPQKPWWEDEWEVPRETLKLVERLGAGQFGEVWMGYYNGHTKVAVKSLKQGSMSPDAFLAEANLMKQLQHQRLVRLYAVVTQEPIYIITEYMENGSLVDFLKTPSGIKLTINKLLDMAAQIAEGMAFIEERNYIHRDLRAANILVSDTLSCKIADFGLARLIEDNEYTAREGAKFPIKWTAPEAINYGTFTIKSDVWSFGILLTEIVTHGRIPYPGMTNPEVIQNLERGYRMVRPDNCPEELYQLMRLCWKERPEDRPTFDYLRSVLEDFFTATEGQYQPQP
Chain of Lyn (P07948 whole entry): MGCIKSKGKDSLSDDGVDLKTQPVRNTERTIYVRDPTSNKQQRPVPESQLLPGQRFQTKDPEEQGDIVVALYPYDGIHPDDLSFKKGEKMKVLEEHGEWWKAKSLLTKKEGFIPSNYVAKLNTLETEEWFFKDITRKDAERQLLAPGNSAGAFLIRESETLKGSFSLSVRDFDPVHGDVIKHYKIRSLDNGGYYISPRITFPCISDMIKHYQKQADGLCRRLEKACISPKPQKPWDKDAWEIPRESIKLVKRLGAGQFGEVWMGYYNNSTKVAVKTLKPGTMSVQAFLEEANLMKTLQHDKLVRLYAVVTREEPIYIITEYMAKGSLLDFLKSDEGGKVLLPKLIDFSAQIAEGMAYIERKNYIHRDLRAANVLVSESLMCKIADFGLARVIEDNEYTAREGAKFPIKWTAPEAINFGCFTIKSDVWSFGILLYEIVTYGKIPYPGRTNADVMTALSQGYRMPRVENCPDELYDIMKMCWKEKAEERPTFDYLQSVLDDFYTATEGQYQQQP

IC50 (BMX) [nM]	IC50 (C-src) [nM]	IC50 (CSK) [nM]	IC50 (BLK) [nM]	IC50 (Lyn) [nM]	IC50 (Btk) [nM]	IC50 (Tec) [nM]	IC50 (RET) [nM]	IC50 (Lck) [nM]	IC50 (EGFR) [nM]	SMILES
< 100	100 to 1000	> 1000	< 100	> 1000	< 100	< 100	> 1000	100 to 1000	< 100	CN(C)C/C=C/C(=O)N(C)c1cccc(-n2nc(-c3ccc(Cl)cc3)c3c(N)ncnc32)c1 [Example 21, (E)-N-(3-(4-amino-3-(4-chlorophenyl)-1H-pyrazolo[3,4-d]pyrimidin-1-yl)phenyl)-4-(dimethylamino)-N-methylbut-2-enamide]
< 100	< 100	> 1000	< 100	< 100	< 100	< 100	> 1000	100 to 1000	< 100	COc1cc(-c2nn(-c3cccc(N(C)C(=O)/C=C/CN(C)C4CCC4)c3)c3ncnc(N)c23)ccc1C [Example 23, (E)-N-(3-(4-amino-3-(3-methoxy-4-methylphenyl)-1H-pyrazolo[3,4-d]pyrimidin-1-yl)phenyl)-4-(cyclobutyl(methyl)amino)-N-methylbut-2-enamide]
< 100	< 100	100 to 1000	< 100	100 to 1000	< 100	< 100	100 to 1000	< 100	< 100	CN(C)C/C=C/C(=O)Nc1cccc(-n2nc(-c3ccc(Cl)cc3)c3c(N)ncnc32)c1 [Example 27, (E)-N-(3-(4-amino-3-(4-chlorophenyl)-1H-pyrazolo[3,4-d]pyrimidin-1-yl)phenyl)-4-(dimethylamino)but-2-enamide]

More lines, now with the values behind:

SMILES	IC50 (BMX) [nM]	IC50 (C-src) [nM]	IC50 (CSK) [nM]	IC50 (BLK) [nM]	IC50 (Lyn) [nM]	IC50 (Btk) [nM]	IC50 (Tec) [nM]	IC50 (RET) [nM]	IC50 (Lck) [nM]	IC50 (EGFR) [nM]
COc1cc(-c2nn([C@@H]3CCN(C(=O)/C=C/CN(C)C)C3)c3ncnc(N)c23)ccc1C [Example 9, (R,E)-1-(3-(4-amino-3-(3-methoxy-4-methylphenyl)-1H-pyrazolo[3,4-d]pyrimidin-1-yl)pyrrolidin-1-yl)-4-(dimethylamino)but-2-en-1-one]	< 100	< 100	100 to 1000	< 100	100 to 1000	< 100	< 100	> 1000	< 100	< 100
CN(C/C=C/C(=O)N1CC[C@@H](n2nc(-c3ccc(Cl)cc3)c3c(N)ncnc32)C1)C1CCC1 [Example 10, (R,E)-1-(3-(4-amino-3-(4-chlorophenyl)-1H-pyrazolo[3,4-d]pyrimidin-1-yl)pyrrolidin-1-yl)-4-(cyclobutyl(methyl)amino)but-2-en-1-one]	< 100	> 1000	> 1000	100 to 1000	> 1000	< 100	< 100	100 to 1000	100 to 1000	100 to 1000
CN(C/C=C/C(=O)N1CC[C@@H](n2nc(-c3ccc(F)cc3)c3c(N)ncnc32)C1)C1CCC1 [Example 11, (R,E)-1-(3-(4-amino-3-(4-fluorophenyl)-1H-pyrazolo[3,4-d]pyrimidin-1-yl)pyrrolidin-1-yl)-4-(cyclobutyl(methyl)amino)but-2-en-1-one]	< 100	> 1000	> 1000	> 1000	> 1000	< 100	< 100	> 1000	100 to 1000	> 1000
Cc1ccc(-c2nn([C@@H]3CCN(C(=O)/C=C/CN(C)C4CCC4)C3)c3ncnc(N)c23)cc1 [Example 12, (R,E)-1-(3-(4-amino-3-p-tolyl-1H-pyrazolo[3,4-d]pyrimidin-1-yl)pyrrolidin-1-yl)-4-(cyclobutyl(methyl)amino)but-2-en-1-one]	< 100	100 to 1000	> 1000	100 to 1000	> 1000	< 100	< 100	100 to 1000	100 to 1000	> 1000
COc1cccc(-c2nn([C@@H]3CCN(C(=O)/C=C/CN(C)C4CCC4)C3)c3ncnc(N)c23)c1 [Example 13, (R,E)-1-(3-(4-amino-3-(3-methoxyphenyl)-1H-pyrazolo[3,4-d]pyrimidin-1-yl)pyrrolidin-1-yl)-4-(cyclobutyl(methyl)amino)but-2-en-1-one]	< 100	> 1000	> 1000	100 to 1000	> 1000	< 100	< 100	> 1000	100 to 1000	> 1000
CN(C)C/C=C/C(=O)N(C)c1ccc(-n2nc(-c3ccc(Cl)cc3)c3c(N)ncnc32)cc1 [Example 14, (E)-N-(4-(4-amino-3-(4-chlorophenyl)-1H-pyrazolo[3,4-d]pyrimidin-1-yl)phenyl)-4-(dimethylamino)-N-methylbut-2-enamide]	< 100	< 100	100 to 1000	100 to 1000	100 to 1000	< 100	< 100	100 to 1000	100 to 1000	100 to 1000

Source: patent US9546172B2, “Pyrazolo[3,4-d]pyrimidine and pyrazolo[2,3-d]pyrimidine compounds as kinase inhibitors” (Pharmacyclics LLC, priority 2011, dated 2017)
